Results from article PMC8470702 (Pharmaceuticals, 2021).
Values joined by “and” are separate entries in the source; they are usually repeats but may differ in a detail not shown here. Identical values can stand only once.

Columns and labels:
[1] = tested on: HDAC homologues (HDACs), HeLa cell extract; experiment: Fluorimetric HDACs inhibition kit (Histone Deacetylase Activity Assay, HeLa cell extract); conditions: for HDAC activity at 2 µM [%]: remaining HDACs activity at 2 µM compound; for IC50: read-out: Inhibition of HDAC homologues (HDACs) IC50
Protocol: The HDACAA kit is based on a two-step enzymatic reaction. The substrate for the reaction is a substituted peptide with an acetylated lysine residue and a bound fluorescent group. The first step of the reaction is deacetylation of the acetylated lysine side chain by the HDAC containing sample (HeLa cell extract). The second step is the cleavage of the deacetylated substrate with the developer solution and the release of the free highly fluorescent group. […] The plate was incubated at 30 °C for 30 min. Next, 10 µL of Developer Solution was added to each well and incubated at room temperature for 10 min. The fluorescence was measured with the fluorimeter plate reader (SpectraMax iD3, Molecular Devices): excitation wavelength of 360 nm and emission wavelength of 460 nm. The following concentrations were used: 0.1, 0.5, 1, and 2 µM. Each compound in each concentration was tested in triplicate. All calculations were performed using Origin 9.0 software.

MV4-11 cells = experiment: Cytotoxicity assay (MTT), 72 h; assay type: cell-based, human; conditions: for IC50: Homo sapiens, MV4-11, 72 h of treatment, MTT; for Selectivity index MV4-11: IC50 of normal (BALB/3T3) vs. cancer cells (MV4-11)
Protocol: (§1) Then, the tested compounds were diluted in culture medium (RPMI1640 + OptiMEM) to reach the final concentrations. Then, cells were treated for 72 h with derivatives at concentrations of […] (100 μL of each concentration per well), or with culture medium alone as a cells control or medium control.
(§2) Each compound in each concentration was tested in triplicate in a single experiment, which was repeated 3–5 times.
(§3) MTT: 20 µL MTT solution (5 mg/mL of PBS, Merck) was added to wells and plates were placed in an incubator. […] The optical density of individual samples was read at a wavelength of 570 nm using a plate reader (Synergy H4 Hybrid Reader, BioTek).

Daudi cells = experiment: Cytotoxicity assay (MTT), 72 h; assay type: cell-based, human; conditions: for IC50: Homo sapiens, Daudi, 72 h of treatment, MTT; for Selectivity index Daudi: IC50 of normal (BALB/3T3) vs. cancer cells (Daudi)
Protocol: as §1, §2, §3

HDAC8 = target: T1, HDAC8 (Homo sapiens, UniProt Q9BY41); experiment: Histone Deacetylase 8 Activity Assay; assay type: biochemical; conditions: read-out: Inhibition of HDAC8 activity IC50
T1 construct: purchased Sigma
T1 sequence (Q9BY41 1-377): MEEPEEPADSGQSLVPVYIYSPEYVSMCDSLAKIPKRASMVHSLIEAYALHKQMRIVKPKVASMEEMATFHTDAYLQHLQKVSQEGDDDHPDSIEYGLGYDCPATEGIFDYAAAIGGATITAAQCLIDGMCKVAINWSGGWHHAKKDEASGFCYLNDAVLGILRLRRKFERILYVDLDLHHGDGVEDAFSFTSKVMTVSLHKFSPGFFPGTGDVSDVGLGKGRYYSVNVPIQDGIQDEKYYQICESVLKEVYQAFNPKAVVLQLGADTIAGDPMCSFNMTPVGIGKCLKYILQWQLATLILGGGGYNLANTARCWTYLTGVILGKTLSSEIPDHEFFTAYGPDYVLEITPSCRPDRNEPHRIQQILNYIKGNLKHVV
Protocol: In order to measure histone deacetylase 8 activity, Histone Deacetylase 8 Activity Assay (Sigma) was used. The HDAC8 acts with the supplied Developer to deacetylate and then cleave the HDAC8 Substrate (R-H-K(Ac)-K(Ac)-AFC). The reaction reagents were added to the wells of a 96-well plate according to Table 7. […] The fluorescence was measured with the fluorimeter plate reader: excitation wave-length of 380 nm and emission wavelength of 500 nm. The following concentrations were used: 0.5, 1, 1.5, 2, 3, and 4 µM. Each compound in each concentration was tested in triplicate. All calculations were performed using Origin 9.0 software.

BALB/3T3 cells = experiment: Cytotoxicity assay (SRB), 72 h; conditions: Mus musculus, BALB/3T3, 72 h, read-out: IC50 BALB/3T3
Protocol: Then, the tested compounds were diluted in culture medium (RPMI1640 + OptiMEM) to reach the final concentrations. Then, cells were treated for 72 h with derivatives at concentrations of 50, 10, 2, 0.4, and 0.008 µM (100 μL of each concentration per well), or with culture medium alone as a cells control or medium control.

A549 cells = experiment: Cytotoxicity assay (SRB), 72 h; assay type: cell-based, human; conditions: for IC50: Homo sapiens, A549, 72 h of treatment, SRB; for Selectivity index A549: IC50 of normal (BALB/3T3) vs. cancer cells (A549)
Protocol: as §1, §2
(§4) SRB: 50 µL 50% cold trichloroacetic acid (TCA, Merck) solution was added to each wells and incubated for 1 h at 4 °C. The plates were rinsed with distilled water, and after drying on a paper towel, 50 µL of a 0.1% (w/v) solution of sulforodamine B (Merck) in 1% acetic acid (POCH, Poland) was added and incubated for 30 min at room temperature. Subsequently, the plates were washed with 1% (v/v) acetic acid and after desiccation of excess acid, 150 µL of 10 mM TRIS (Merck) was added. After another 30 min of incubation at RT, the optical density of individual samples was read at 540 nm using a plate reader (Synergy H4 Hybrid Reader, BioTek).

MCF-7 cells = experiment: Cytotoxicity assay (SRB), 72 h; assay type: cell-based, human; conditions: for IC50: Homo sapiens, MCF7, 72 h of treatment, SRB; for Selectivity index MCF-7: IC50 of normal (BALB/3T3) vs. cancer cells (MCF-7)
Protocol: as §1, §2, §4

Row | SMILES | HDAC activity at 2 µM [%] [1] [%] | melting point [°C] | IC50 (MV4-11 cells) [nM] | IC50 (Daudi cells) [nM] | IC50 [1] | IC50 (HDAC8) [nM] | IC50 (BALB/3T3 cells) [nM] | Selectivity index MV4-11 (MV4-11 cells) | Selectivity index Daudi (Daudi cells) | IC50 (A549 cells) [nM] | Selectivity index A549 (A549 cells) | IC50 (MCF-7 cells) [nM] | Selectivity index MCF-7 (MCF-7 cells)
1 | CN1C(=O)c2ccccc2N(CC(=O)NO)C(=O)c2ccccc21 [Compound 7a] | 95.6 ± 1.4 | 233 to 234 | > 50000 | > 50000 |  |  |  |  |  |  |  |  | 
2 | CN1C(=O)c2ccccc2N(CCC(=O)NO)C(=O)c2ccccc21 [Compound 7b] | 84.1 ± 2.3 | 105 to 106 | > 50000 | > 50000 |  |  |  |  |  |  |  |  | 
3 | CN1C(=O)c2ccccc2N(CCCC(=O)NO)C(=O)c2ccccc21 [Compound 7c] | 75.4 ± 3.0 | 190 to 191 | > 50000 | > 50000 |  |  |  |  |  |  |  |  | 
4 | CN1C(=O)c2ccccc2N(CCCCC(=O)NO)C(=O)c2ccccc21 [Compound 7d] | 64.6 ± 3.6 | 217 to 218 | 7580 ± 2500 | 9600 ± 2100 |  |  |  |  |  |  |  |  | 
5 | CN1C(=O)c2ccccc2N(CCCCCC(=O)NO)C(=O)c2ccccc21 [Compound 7e] | 48.7 ± 1.0 | 155 to 156 | 2330 ± 640 | 3030 ± 550 | 1960 ± 105 nM | 5670 ± 640 |  |  |  |  |  |  | 
6 | CN1C(=O)c2ccccc2N(CCCCCCC(=O)NO)C(=O)c2ccccc21 [Compound 7f] | 66.1 ± 4.1 | 145 to 146 | 4450 ± 340 | 4830 ± 1960 |  |  |  |  |  |  |  |  | 
7 | O=C(CN1C(=O)c2ccccc2C=Cc2ccccc21)NO [Compound 7g] | 83.6 ± 4.2 | 119 to 120 | 34000 ± 750 | 17300 ± 6200 |  |  |  |  |  |  |  |  | 
8 | O=C(CCN1C(=O)c2ccccc2C=Cc2ccccc21)NO [Compound 7h] | 87.5 ± 1.2 | 173 to 174 | > 50000 | 32600 ± 4780 |  |  |  |  |  |  |  |  | 
9 | O=C(CCCN1C(=O)c2ccccc2C=Cc2ccccc21)NO [Compound 7i] | 90.4 ± 1.6 | 172 to 173 | > 50000 | > 50000 |  |  |  |  |  |  |  |  | 
10 | O=C(CCCCN1C(=O)c2ccccc2C=Cc2ccccc21)NO [Compound 7j] | 63.3 ± 0.5 | 175 to 176 | 5300 ± 1360 | 3470 ± 660 |  |  |  |  |  |  |  |  | 
11 | O=C(CCCCCN1C(=O)c2ccccc2C=Cc2ccccc21)NO [Compound 7k] | 15.7 ± 1.3 |  | 220 ± 21 | 460 ± 122 | 183 ± 15 nM | 3370 ± 330 | 1280 ± 150 | 5.82 | 2.78 | 1270 ± 420 | 1.01 | 618 ± 95 | 2.07
12 | O=C(CCCCCCN1C(=O)c2ccccc2C=Cc2ccccc21)NO [Compound 7l] | 44.7 ± 4.4 | 151 to 152 | 1570 ± 120 | 1440 ± 610 | 1240 ± 155 nM |  |  |  |  |  |  |  | 
13 | CN1C(=O)c2ccccc2C(=O)N(CCCCCC(=O)NO)c2ccccc21 [Compound 7m] | 72.7 ± 5.2 | 95 to 96 | 4450 ± 960 | 5090 ± 300 |  |  |  |  |  |  |  |  | 
14 | CN1C(=O)c2cc(Cl)c(Cl)cc2C(=O)N(CCCCCC(=O)NO)c2ccccc21 [Compound 7n] | 68.3 ± 2.8 | 104 to 105 | 2850 ± 340 | 2560 ± 980 |  |  |  |  |  |  |  |  | 
15 | O=C(CCCCCN1C(=O)c2ccccc2C(=O)N(Cc2ccccc2)c2ccccc21)NO [Compound 7o] | 64.5 ± 2.1 | 172 to 173 | 3550 ± 750 | 3520 ± 800 |  |  |  |  |  |  |  |  | 
16 | O=C(CCCCCN1C(=O)c2ccccc2CCc2ccccc21)NO [Compound 7p] | 21.5 ± 1.6 | 164 to 165 | 200 ± 73 | 318 ± 98 | 309 ± 35 nM | 3140 ± 420 | 1040 ± 280 | 5.20 | 3.27 | 1210 ± 240 | 0.86 | 661 ± 120 | 1.57
17 | CN1C(=O)c2cc(Br)ccc2N(CCCCCC(=O)NO)C(=O)c2ccccc21 [Compound 7r] | 31.5 ± 7.1 | 76 to 77 | 603 ± 132 | 785 ± 246 | 875 nM and 914 nM |  | 3370 ± 870 | 5.59 | 4.29 | 4610 ± 380 | 0.73 | 2720 ± 570 | 1.24
18 | COc1cc2c(cc1OC)N(CCCCCC(=O)NO)C(=O)c1ccccc1N(C)C2=O [Compound 7s] | 35.9 ± 0.8 | 82 to 83 | 692 ± 110 | 944 ± 167 | 914 nM and 875 nM |  | 12000 ± 5900 | 17.4 | 12.75 | 18000 ± 5770 | 0.67 | 4240 ± 1030 | 2.84
19 | CN1C(=O)c2cc3ccccc3cc2N(CCCCCC(=O)NO)C(=O)c2cc(Cl)ccc21 [Compound 7t] | 19.9 ± 1.6 | 161 to 162 | 93 ± 9 | 137 ± 40 | 266 ± 14 nM | 1950 ± 170 | 690 ± 50 | 7.42 | 5.04 | 1050 ± 70 | 0.66 | 368 ± 15 | 1.88
